Measured values published in PMC4004260 (Biochemistry, 2014).

Columns and labels:
[1] = test system: gpASNase3 (guinea pig L-asparaginase type III); experiment: NADH-coupled spectrophotometric assay; format: biochemical, Cavia porcellus; conditions: glycine-activated (cleaved) enzyme; Tris pH 7.5, 37 °C
[2] = target: cleaved gpASNase3 protomer (α- and β-subunit), Asp-bound (Cavia porcellus (guinea pig)); experiment: crystal structure

Km [1]	stoichiometry N [2]	Molecule
2240 ± 140 µM	–	NC(=O)C[C@H](N)C(=O)O [L-Asn]
–	2	cleaved gpASNase3 protomer (α- and β-subunit), Asp-bound (complex)
410 ± 30 µM	–	N[C@@H](CC(=O)N[C@@H](Cc1ccccc1)C(=O)O)C(=O)O [β-L-Asp-L-Phe]
